Reference: paper PMC3813752 (PLoS ONE, 2013)
Where two headings read alike, the source gives them in different places.

Key:
human CB2 receptor [1] = molecular target: T1, human CB2 receptor (Homo sapiens, UniProt P34972); experiment: cAMP accumulation assay, CHO cells expressing CB2; type: cell-based; conditions: in words; standard ligands partly from the literature
human GPR18 [2] = molecular target: T2, human GPR18 (Homo sapiens, UniProt Q14330); experiment: cell-based; conditions: for inhibition at 10 µM: CHO, read-out: % inhibition of Δ9-THC (10 µM)-induced β-arrestin recruitment at GPR18, test compound at 10 µM; for IC50: GPR18 IC50, β-arrestin recruitment, antagonist mode vs. Δ9-THC (10 µM)
T2 sequence (Q14330 1-331): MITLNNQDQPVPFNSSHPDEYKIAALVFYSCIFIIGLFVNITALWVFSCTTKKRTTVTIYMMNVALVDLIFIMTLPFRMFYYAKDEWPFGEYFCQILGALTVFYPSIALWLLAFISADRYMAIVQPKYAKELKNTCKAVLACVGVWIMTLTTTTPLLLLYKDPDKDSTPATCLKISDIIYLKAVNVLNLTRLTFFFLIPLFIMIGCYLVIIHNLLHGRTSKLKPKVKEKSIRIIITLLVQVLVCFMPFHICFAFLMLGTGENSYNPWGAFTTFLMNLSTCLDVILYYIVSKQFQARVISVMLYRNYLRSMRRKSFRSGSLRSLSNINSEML

human GPR18 [3] = molecular target: T2, human GPR18; conditions: for functional property at GPR18 (agonist/antagonist): in words; for agonist effect on β-arrestin recruitment at GPR18: test compound 10 µM, related to effect of Δ9-THC 10 µM = 100%
human GPR55 = human GPR55 (Homo sapiens, UniProt Q9Y2T6); experiment: β-arrestin recruitment assay (PathHunter), CHO cells expressing GPR55; conditions: for inhibition at 10 µM: CHO; for functional property at GPR55 (agonist/antagonist): in words; for IC50: antagonist mode vs. LPI (1 µM); for agonist effect on β-arrestin recruitment at GPR55: test compound 10 µM, related to effect of LPI 1 µM = 100%
human CB1 receptor = human CB1 receptor (Homo sapiens, UniProt P21554); experiment: biochemical; type: binding; conditions: for inhibition at 10 µM: vs. [3H]CP55,940, read-out: % inhibition of radioligand binding at CB1; for Ki: membranes of CHO cells expressing human CB1, three independent experiments in duplicates, read-out: Ki CB1, heterologous competition vs. [3H]CP55,940
human CB2 receptor [4] = molecular target: T1, human CB2 receptor; experiment: Radioligand binding (heterologous competition) vs. [3H]CP55,940 at CB2; conditions: for inhibition at 10 µM: read-out: % inhibition of radioligand binding at CB2
[5] = read-out: % inhibition of LPI (1 µM)-induced β-arrestin recruitment at GPR55
[6] = GPR55 IC50, β-arrestin recruitment
[7] = Ki CB2, heterologous competition vs. [3H]CP55,940, membranes of CHO cells expressing human CB2, three independent experiments in duplicates
[8] = membranes of CHO cells expressing human CB2, three independent experiments in duplicates, read-out: Ki CB2, heterologous competition vs. [3H]CP55,940
[9] = read-out: % inhibition of LPI (1 µM)-induced β-arrestin recruitment at GPR55, test compound at 10 µM

human CB1 receptor, sequence (P21554 whole entry): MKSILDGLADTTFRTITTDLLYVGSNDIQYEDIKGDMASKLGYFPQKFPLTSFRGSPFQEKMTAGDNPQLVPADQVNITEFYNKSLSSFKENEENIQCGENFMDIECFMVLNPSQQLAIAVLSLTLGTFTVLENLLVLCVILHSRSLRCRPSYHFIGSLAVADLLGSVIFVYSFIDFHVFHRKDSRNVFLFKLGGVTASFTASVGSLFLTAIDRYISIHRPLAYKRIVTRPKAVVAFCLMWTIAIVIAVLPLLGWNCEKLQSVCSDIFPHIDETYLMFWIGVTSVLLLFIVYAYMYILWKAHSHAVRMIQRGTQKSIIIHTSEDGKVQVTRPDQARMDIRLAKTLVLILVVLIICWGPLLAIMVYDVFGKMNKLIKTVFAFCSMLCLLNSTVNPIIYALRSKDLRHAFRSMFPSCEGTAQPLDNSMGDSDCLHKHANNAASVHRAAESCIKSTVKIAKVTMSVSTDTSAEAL
T1 sequence (P34972 whole entry): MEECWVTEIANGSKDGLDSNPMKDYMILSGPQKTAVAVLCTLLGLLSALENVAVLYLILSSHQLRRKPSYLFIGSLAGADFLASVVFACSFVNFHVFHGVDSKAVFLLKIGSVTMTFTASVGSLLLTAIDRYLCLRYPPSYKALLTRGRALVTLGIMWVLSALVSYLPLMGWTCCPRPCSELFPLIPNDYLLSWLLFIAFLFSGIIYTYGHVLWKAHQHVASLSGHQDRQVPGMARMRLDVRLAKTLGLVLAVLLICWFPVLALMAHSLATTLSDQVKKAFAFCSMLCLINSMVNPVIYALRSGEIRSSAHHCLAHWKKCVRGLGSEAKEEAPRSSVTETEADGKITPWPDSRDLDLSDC
human GPR55, sequence (Q9Y2T6 whole entry): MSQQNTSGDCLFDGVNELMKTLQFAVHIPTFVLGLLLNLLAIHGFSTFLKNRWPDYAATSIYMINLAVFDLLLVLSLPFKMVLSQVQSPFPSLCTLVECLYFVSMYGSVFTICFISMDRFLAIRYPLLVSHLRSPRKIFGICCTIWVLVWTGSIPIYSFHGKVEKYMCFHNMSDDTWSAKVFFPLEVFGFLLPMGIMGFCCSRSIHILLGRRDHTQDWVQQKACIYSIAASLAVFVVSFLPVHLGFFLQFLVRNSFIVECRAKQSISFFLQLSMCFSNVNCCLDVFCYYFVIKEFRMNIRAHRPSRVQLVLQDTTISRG

SMILES	inhibition at 10 µM (human GPR18 [2])	IC50 (human GPR18 [2])	EC50 (human GPR55)	inhibition at 10 µM (human GPR55; [5])	agonist effect on β-arrestin recruitment at GPR55 (human GPR55)	EC50 (human GPR18 [2])	agonist effect on β-arrestin recruitment at GPR18 (human GPR18 [3])	IC50 (human GPR55; [6])	inhibition at 10 µM (human CB1 receptor)	Ki (human CB1 receptor)	Ki (human CB2 receptor [4]; [8])	inhibition at 10 µM (human GPR55; [9])	other results
CCCCCc1cc(O)c2c(c1)OC(C)(C)[C@@H]1CCC(C)=C[C@@H]21 [Compound 1, Δ^9-tetrahydrocannabinol, reference compound]	0%	> 10 µM	> 10 µM	65%	0%								functional property at CB2 (agonist/antagonist) (human CB2 receptor [1]): agonist; functional property at GPR18 (agonist/antagonist) (human GPR18 [3]): agonist; EC50 (human GPR18 [3]; read-out: GPR18 EC50, β-arrestin recruitment, agonist mode): 4.61 ± 0.5 µM; functional property at GPR55 (agonist/antagonist) (human GPR55): antagonist; IC50 (human GPR55; read-out: GPR55 IC50, β-arrestin recruitment): 14.2 ± 5.4 µM
Cc1c(C(=O)NN2CCCCC2)nn(-c2ccc(Cl)cc2Cl)c1-c1ccc(Cl)cc1 [Compound 5, rimonabant, reference compound]	94%			0%		> 10 µM	0%	> 10 µM					functional property at CB2 (agonist/antagonist) (human CB2 receptor [1]): antagonist; functional property at GPR18 (agonist/antagonist) (human GPR18 [3]): antagonist; IC50 (human GPR18 [3]; read-out: GPR18 IC50, β-arrestin recruitment, antagonist mode vs. Δ9-THC (10 µM)): 10.1 ± 1.3 µM; functional property at GPR55 (agonist/antagonist) (human GPR55): agonist; EC50 (human GPR55; read-out: GPR55 EC50, β-arrestin recruitment, agonist mode): 2.01 ± 0.66 µM
C=CCc1ccc(O)c(-c2ccc(O)c(CC=C)c2)c1 [Compound 10, honokiol, reference compound]	45%	~10 µM	> 10 µM	42%	27%	> 10 µM	0%	~10 µM					
Oc1ccccc1-c1ccccc1O [Compound 40, 2-(2-hydroxyphenyl)phenol]									11%	> 1 µM			Ki (human CB2 receptor [4]; [7]): > 1 µM; inhibition at 10 µM (human CB2 receptor [4]): 0%
Cc1ccc(O)c(-c2cc(C)ccc2O)c1 [Compound 41]	0%	> 10 µM	> 10 µM		30%	> 10 µM	20%	> 10 µM	23%	> 1 µM	> 1 µM	0%	Ki (human CB2 receptor [4]; [7]): > 0.01 µM; inhibition at 10 µM (human CB2 receptor [4]; at 10 µM, vs. [3H]CP55,940): 30%
CCc1ccc(O)c(-c2cc(CC)ccc2O)c1 [Compound 42]	12%	> 10 µM	> 10 µM		23%	> 10 µM	6%	> 10 µM		2.13 ± 0.84 µM	2.87 ± 0.77 µM	0%	
CCCCCCc1ccc(O)c(-c2cc(CCCCCC)ccc2O)c1 [Compound 45]	127%	11.7 ± 2.8 µM	> 10 µM		0%	> 10 µM	0%	> 10 µM		4.64 ± 0.58 µM	1.83 ± 0.19 µM	0%	
CCCc1ccc(O)c(-c2ccccc2O)c1 [Compound 46]	0%	> 10 µM	> 10 µM		25%	> 10 µM	0%	> 10 µM	45%			37%	inhibition at 10 µM (human CB2 receptor [4]; at 10 µM, vs. [3H]CP55,940): 49%; Ki (human CB2 receptor [4]; vs. [3H]CP55,940, read-out: Ki CB2): ~10 µM
CCCCc1ccc(O)c(-c2ccccc2O)c1 [Compound 47]	24%	> 10 µM	> 10 µM		2%	> 10 µM	0%	> 10 µM	40%	~1 µM	2.03 ± 0.88 µM	35%	
CCCCCc1ccc(O)c(-c2ccccc2O)c1 [Compound 48]	18%	> 10 µM	~10 µM		42%	> 10 µM	0%	> 10 µM		6.59 ± 2.56 µM	1.16 ± 0.29 µM	25%	
